{"source": "patent US11286263B2", "about": "“Macrocyclic fluorine substituted indole derivatives” (The Broad Institute, Inc., priority 2017, dated 2022)", "key": {"A2780": {"system": "A2780", "assay": "Antiproliferation assay A2780 (Assay 7)", "format": "cell-based", "details": "A2780 cells, CellTiter-Glo, single determinations, read-out: IC50 Antiproli A2780", "how_it_was_run": "(§1)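 CellTiter-Glo luminescence readout; 72 h compound exposure, 37 °C, humidified; rim wells excluded; time-zero reference plate plated in parallel and read identically.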"}, "BCL-2": {"target": "BCL-2 (Homo sapiens (Human), UniProt P10415)", "sequence (P10415 1-211)": "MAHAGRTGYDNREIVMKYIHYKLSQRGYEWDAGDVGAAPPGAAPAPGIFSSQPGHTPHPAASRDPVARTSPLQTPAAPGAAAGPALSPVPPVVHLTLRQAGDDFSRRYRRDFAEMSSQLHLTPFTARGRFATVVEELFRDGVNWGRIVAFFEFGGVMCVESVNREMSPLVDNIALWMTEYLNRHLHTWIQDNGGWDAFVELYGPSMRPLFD", "assay": "Protein-protein interaction assay BCL-2/Bad BH3 peptide (BCL-2 assay), TR-FRET", "format": "binding", "details": "BCL-2/Bad BH3 peptide TR-FRET; median"}, "SUDHL5 [1]": {"system": "SUDHL5", "assay": "Antiproliferation assay SUDHL5 (Assay 7)", "format": "cell-based", "details": "SUDHL5 cells, CellTiter-Glo, median, read-out: IC50 Antiproli SUDHL5 [M] (median)", "how_it_was_run": "as §1"}, "SUDHL5 [2]": {"system": "SUDHL5", "assay": "Induction of cytotoxicity, SUDHL5 (Assay 6)", "details": "read-out: IC50 Cytotox SUDHL5 [M] (median), SUDHL5 cells, 5 h, CellTiter-Glo", "protocol": "In principle, compounds that induce apoptosis will concomitantly induce cell cytotoxicity. Therefore, cytotoxicity assays were run in parallel in SUDHL5 and SUDHL10 cells.\nThe different cell lines were plated in culture medium (RPMI 1640 [GIBCO #22400-089] supplemented with 10% Fetal Bovine Serum) at a density of 3,300 cells in 30 μl/well in a sterile, solid black, flat bottom, polystyrene, TC-treated 384-well microplate (Corning #3571) using Multidrop Combi Reagent Dispenser. As a control, medium without cells was also added to the plate. Cells were incubated in a humidified incubator at 37° C. overnight. On the next day, the cells were treated with compounds (stock solution, 10 mM in DMSO) using the HP D300 Digital Dispenser in a concentration range of 3.3×10e-5 M (33 μM) to 5×10e-9 M (5 nM) in a single-dot curve with at least 16 dilutions and a DMSO concentration of 0.33%. Rim wells were excluded. The cells were incubated for 5 h hours in a humidified incubator at 37° C. After this incubation, 30 μl of CellTiter-Glo® Luminescent Cell Viability reagent (Promega, G7573) was added to each well using the Multidrop Combi Reagent Dispenser, followed by 15 min incubation on a shaker at room temperature. Finally, luminescence was read at 0.1 ms, with a gain of 3000 using the PHERAstar FS microplate reader (BMG Labtech).\nThe Bella DRC Master Sheet was used to calculate IC50s, with fixed CI=0 and C0=1."}, "SUDHL10": {"system": "SUDHL10", "assay": "Induction of cytotoxicity, SUDHL10 (Assay 6)", "details": "read-out: IC50 Cytotox SUDHL10 [M] (median), SUDHL10 cells, 5 h, CellTiter-Glo"}}, "note": "Like-named read-outs stand apart in the source and are kept apart here.", "data": [{"smiles": "CCc1nn(C)c2c1-c1c(F)ccc3c(CCCOc4cccc5c4CCC5)c(C(=O)O)n(c13)CCCCOC2", "note": "(racemic) [Example 45, (rac)-1-(3-((2,3-dihydro-1H-inden-4-yl)oxy)propyl)-12-ethyl-13-fluoro-10-methyl-4,5,6,7,9,10-hexahydropyrazolo[4′,3′:9,10][1]oxa[6]azacycloundecino[8,7,6-hi]indole-2-carboxylic acid]", "values": [{"measurement": "IC50", "setting": "A2780; Homo sapiens, A2780, 72 h", "result": 28200, "unit": "nM"}, {"measurement": "IC50", "setting": "BCL-2", "result": "> 20000", "unit": "nM"}, {"measurement": "IC50", "setting": "SUDHL5 [1]; Homo sapiens, SU-DHL-5, 72 h", "result": "1.9e-06", "unit": "M"}, {"measurement": "IC50", "setting": "SUDHL5 [2]; Homo sapiens, SU-DHL-5, 5 h", "result": "1.9e-06", "unit": "M"}, {"measurement": "IC50", "setting": "SUDHL10; Homo sapiens, SU-DHL10, 5 h", "result": "3.4e-06", "unit": "M"}]}, {"smiles": "Cc1c2c(nn1C)CNCCCCn1c(C(=O)O)c(CCCOc3cccc4ccccc34)c3ccc(F)c-2c31", "note": "(single isomer, unassigned; enantiomer 1) [Example 48, 4-fluoro-2,3-dimethyl-7-{3-[(naphthalen-1-yl)oxy]propyl}-10,11,12,13,14,15-hexahydro-2H-pyrazolo[3′,4′:8,9][1,6]diazacycloundecino[10,11,1-hi]indole-8-carboxylic acid (enantiomer 1)]", "values": [{"measurement": "IC50", "setting": "A2780; 72 h", "result": 7170, "unit": "nM"}, {"measurement": "IC50", "setting": "BCL-2", "result": "> 20000", "unit": "nM"}, {"measurement": "IC50", "setting": "SUDHL5 [1]; 72 h", "result": "1.4e-06", "unit": "M"}, {"measurement": "IC50", "setting": "SUDHL5 [2]", "result": "1.3e-06", "unit": "M"}, {"measurement": "IC50", "setting": "SUDHL10", "result": "1.9e-06", "unit": "M"}]}]}
